What was measured:
Assay in all cases: Competitive isoTOP-ABPP in situ (fragment-treated cells)
Assay type in all cases: cell-based
[1] = target: cysteines in MDA-MB-231 and Ramos cells (Homo sapiens, UniProt Q6PCB5); conditions: 200 μM, insitu
[2] = target: cysteines in MDA-MB-231 and Ramos cells (Homo sapiens, UniProt Q9Y5T5); conditions: 200 μM, insitu
[3] = target: T1, cysteines in MDA-MB-231 and Ramos cells (Homo sapiens, UniProt Q9NXJ5); conditions: 200 μM, insitu
T1 sequence (Q9NXJ5 1-209): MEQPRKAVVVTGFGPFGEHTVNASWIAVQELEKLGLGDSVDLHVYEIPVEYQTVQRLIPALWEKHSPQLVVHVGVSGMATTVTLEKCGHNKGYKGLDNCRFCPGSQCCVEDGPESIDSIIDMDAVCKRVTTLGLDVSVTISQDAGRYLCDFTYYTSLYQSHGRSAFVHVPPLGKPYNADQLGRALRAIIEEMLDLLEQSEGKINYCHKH

[4] = target: cysteines in MDA-MB-231 and Ramos cells (Homo sapiens, UniProt Q8IU81); conditions: 200 μM, insitu, 231
[5] = target: T2, cysteines in MDA-MB-231 and Ramos cells (Homo sapiens, UniProt Q16667); conditions: 200 μM, insitu
T2 sequence (Q16667 1-212): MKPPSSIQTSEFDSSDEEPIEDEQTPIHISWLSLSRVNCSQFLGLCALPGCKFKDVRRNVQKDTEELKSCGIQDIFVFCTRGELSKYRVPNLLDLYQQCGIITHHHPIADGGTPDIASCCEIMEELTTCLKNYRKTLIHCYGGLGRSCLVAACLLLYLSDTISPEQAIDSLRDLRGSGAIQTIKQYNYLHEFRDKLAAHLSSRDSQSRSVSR

[6] = target: T3, cysteines in MDA-MB-231 and Ramos cells (Homo sapiens, UniProt Q7Z5K2)
T3 sequence (Q7Z5K2 1-1190): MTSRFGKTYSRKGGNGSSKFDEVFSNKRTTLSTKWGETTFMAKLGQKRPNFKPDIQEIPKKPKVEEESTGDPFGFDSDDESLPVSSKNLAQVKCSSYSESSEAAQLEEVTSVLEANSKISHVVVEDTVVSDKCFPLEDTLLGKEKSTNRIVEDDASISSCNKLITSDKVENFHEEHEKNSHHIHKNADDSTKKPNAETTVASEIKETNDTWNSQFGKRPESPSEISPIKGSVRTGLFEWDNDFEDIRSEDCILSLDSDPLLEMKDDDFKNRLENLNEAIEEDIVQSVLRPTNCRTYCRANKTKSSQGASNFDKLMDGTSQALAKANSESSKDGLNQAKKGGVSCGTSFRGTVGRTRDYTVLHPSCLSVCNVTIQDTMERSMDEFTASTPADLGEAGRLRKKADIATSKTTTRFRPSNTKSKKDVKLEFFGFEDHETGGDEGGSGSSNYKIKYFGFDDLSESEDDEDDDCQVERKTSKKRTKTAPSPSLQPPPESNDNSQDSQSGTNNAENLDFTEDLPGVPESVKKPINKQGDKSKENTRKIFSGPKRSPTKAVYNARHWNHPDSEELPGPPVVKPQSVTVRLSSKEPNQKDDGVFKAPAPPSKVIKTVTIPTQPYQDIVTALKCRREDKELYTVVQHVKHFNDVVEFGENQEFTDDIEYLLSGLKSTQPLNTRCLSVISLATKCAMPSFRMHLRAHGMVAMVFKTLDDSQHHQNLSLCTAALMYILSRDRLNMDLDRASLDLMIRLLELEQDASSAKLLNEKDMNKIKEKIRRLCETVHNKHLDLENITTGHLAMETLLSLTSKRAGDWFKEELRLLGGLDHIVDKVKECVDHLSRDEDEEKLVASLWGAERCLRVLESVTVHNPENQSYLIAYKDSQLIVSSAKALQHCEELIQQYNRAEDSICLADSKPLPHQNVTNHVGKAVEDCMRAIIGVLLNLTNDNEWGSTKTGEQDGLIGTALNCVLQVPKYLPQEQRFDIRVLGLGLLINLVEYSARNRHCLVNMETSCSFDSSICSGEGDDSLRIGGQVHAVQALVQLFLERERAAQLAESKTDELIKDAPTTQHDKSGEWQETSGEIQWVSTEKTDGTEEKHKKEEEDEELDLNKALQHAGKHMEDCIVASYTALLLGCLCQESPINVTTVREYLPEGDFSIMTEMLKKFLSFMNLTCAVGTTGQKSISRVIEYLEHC

[7] = target: T4, cysteines in MDA-MB-231 and Ramos cells (Homo sapiens, UniProt Q9GZR2); conditions: 200 μM, insitu
T4 sequence (Q9GZR2 1-422): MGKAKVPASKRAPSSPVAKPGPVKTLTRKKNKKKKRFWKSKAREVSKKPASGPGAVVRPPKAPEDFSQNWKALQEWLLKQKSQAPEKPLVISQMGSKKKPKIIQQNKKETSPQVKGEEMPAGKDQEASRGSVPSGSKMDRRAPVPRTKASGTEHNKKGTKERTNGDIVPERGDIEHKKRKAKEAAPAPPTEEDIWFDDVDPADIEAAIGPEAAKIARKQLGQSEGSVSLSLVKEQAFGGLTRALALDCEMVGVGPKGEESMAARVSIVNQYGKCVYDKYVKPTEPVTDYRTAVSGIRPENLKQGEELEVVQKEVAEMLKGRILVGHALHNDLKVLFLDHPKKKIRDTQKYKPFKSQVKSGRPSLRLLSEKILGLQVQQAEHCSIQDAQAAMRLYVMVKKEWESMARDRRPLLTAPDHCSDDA

[8] = target: T5, cysteines in MDA-MB-231 and Ramos cells (Homo sapiens, UniProt Q9BR61); conditions: 200 μM, insitu
T5 sequence (Q9BR61 1-282): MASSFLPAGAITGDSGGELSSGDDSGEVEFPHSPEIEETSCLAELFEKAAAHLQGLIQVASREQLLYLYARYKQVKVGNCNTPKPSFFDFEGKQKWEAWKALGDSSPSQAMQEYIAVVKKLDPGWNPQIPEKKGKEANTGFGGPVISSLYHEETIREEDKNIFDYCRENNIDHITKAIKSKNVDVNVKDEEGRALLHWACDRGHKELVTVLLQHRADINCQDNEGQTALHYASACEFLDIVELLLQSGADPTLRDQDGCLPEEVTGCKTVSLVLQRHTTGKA

[9] = target: T6, cysteines in MDA-MB-231 and Ramos cells (Homo sapiens, UniProt Q6QNY0); conditions: 200 μM, insitu
T6 sequence (Q6QNY0 1-202): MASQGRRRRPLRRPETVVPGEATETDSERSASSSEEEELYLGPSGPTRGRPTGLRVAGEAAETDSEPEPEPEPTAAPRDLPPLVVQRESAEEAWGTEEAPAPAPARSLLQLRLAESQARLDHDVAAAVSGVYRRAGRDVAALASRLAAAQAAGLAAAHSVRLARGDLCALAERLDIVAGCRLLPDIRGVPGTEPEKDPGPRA

Chain of cysteines in MDA-MB-231 and Ramos cells (Homo sapiens, UniProt Q9Y5T5) (Q9Y5T5 whole entry): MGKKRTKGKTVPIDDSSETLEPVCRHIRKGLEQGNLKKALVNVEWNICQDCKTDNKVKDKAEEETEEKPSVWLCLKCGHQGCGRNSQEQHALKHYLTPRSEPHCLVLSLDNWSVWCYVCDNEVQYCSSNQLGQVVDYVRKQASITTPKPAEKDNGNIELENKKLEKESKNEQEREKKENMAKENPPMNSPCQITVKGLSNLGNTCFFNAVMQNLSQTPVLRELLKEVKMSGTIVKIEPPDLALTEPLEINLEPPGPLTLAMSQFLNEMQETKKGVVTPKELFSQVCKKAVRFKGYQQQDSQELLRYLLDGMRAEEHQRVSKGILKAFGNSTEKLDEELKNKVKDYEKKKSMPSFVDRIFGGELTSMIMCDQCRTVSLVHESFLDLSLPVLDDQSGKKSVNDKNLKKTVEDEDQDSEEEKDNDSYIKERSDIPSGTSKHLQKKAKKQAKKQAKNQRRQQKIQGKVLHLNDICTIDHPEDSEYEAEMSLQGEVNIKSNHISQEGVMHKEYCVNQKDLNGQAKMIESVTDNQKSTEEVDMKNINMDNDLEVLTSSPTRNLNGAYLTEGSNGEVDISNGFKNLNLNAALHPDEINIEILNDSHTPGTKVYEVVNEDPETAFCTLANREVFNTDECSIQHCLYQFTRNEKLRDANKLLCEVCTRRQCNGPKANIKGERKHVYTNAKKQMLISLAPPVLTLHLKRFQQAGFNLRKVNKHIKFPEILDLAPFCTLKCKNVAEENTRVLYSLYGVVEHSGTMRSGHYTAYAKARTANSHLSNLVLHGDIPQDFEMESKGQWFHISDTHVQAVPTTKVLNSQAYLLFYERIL
Chain of cysteines in MDA-MB-231 and Ramos cells (Homo sapiens, UniProt Q6PCB5) (Q6PCB5 whole entry): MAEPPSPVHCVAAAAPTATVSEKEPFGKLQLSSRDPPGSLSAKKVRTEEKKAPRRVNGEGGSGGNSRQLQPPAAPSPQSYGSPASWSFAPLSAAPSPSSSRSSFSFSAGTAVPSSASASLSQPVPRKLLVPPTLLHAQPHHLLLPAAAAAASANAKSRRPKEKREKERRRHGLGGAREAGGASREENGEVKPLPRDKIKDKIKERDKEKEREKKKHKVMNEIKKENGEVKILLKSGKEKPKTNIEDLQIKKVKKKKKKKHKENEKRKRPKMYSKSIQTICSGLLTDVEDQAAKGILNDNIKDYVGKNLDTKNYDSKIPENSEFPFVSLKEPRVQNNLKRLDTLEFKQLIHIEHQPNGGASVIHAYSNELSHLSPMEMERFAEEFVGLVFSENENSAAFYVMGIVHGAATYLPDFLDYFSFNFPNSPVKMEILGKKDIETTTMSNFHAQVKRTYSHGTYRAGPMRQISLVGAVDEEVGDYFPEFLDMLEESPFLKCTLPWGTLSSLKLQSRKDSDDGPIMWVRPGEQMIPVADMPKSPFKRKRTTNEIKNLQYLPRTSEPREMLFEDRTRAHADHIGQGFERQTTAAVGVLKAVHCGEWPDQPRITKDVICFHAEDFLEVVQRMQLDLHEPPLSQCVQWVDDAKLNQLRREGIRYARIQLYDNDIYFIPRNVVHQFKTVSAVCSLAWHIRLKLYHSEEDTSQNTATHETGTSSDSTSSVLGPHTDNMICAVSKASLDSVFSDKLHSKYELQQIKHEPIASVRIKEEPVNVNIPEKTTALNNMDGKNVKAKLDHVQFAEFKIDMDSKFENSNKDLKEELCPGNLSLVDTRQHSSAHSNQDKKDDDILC
Chain of cysteines in MDA-MB-231 and Ramos cells (Homo sapiens, UniProt Q8IU81) (Q8IU81 whole entry): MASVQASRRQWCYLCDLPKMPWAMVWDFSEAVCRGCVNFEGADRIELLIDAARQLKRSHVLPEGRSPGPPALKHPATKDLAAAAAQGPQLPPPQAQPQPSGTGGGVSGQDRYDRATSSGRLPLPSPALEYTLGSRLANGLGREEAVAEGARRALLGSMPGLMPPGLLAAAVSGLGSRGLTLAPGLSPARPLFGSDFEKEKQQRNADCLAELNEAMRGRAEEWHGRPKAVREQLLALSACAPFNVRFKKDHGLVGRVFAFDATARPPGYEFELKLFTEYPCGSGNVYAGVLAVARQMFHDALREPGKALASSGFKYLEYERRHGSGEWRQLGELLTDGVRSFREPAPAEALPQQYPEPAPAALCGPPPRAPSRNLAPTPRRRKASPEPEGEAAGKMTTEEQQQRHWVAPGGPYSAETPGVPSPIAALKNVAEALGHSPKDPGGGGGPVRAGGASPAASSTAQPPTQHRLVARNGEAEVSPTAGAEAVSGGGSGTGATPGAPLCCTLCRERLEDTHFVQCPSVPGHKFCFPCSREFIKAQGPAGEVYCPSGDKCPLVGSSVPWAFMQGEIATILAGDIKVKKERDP

CC(C)CCOCCNC(=O)CCl [compound 27]
isoTOP-ABPP ratio Q6PCB5_C280 [1]; 231: 1.0
isoTOP-ABPP ratio, Q9Y5T5_C205 [2]; 231: 1.2

O=C(CCl)N1CCN(S(=O)(=O)c2ccccc2F)CC1 [compound 10]
isoTOP-ABPP ratio, cysteine Q9NXJ5_C149 ([3]; ramos): 11.0
isoTOP-ABPP ratio, cysteine Q8IU81_C363 [4]: 5.9
isoTOP-ABPP ratio, cysteine Q16667_C39 [5]; 231: 2.3
isoTOP-ABPP ratio, cysteine Q7Z5K2_C160 ([6]; 200 μM, insitu, 231): 20.0

CC1CCc2ccccc2N1C(=O)CCl (centres unmarked) [compound 45]
isoTOP-ABPP ratio Q9GZR2_C382 [7]; 231: 20.0
isoTOP-ABPP ratio Q8IU81_C363 [4]: 1.7

Cc1ccc(C=C(C#N)C(=O)NCCN2CCOCC2)cc1 [compound 41]
isoTOP-ABPP ratio Q9BR61_C267 [8]; 231: 0.5
isoTOP-ABPP ratio Q7Z5K2_C160 ([6]; 200 μM, insitu, 231): 1.0

C=CC(=O)Nc1cc(F)c(N2CCN(C(=O)OC(C)(C)C)CC2)c(F)c1 [compound 38]
isoTOP-ABPP ratio Q6QNY0_C168 [9]; 231: 1.0
isoTOP-ABPP ratio Q8IU81_C363 [4]: 1.3
isoTOP-ABPP ratio, Q9Y5T5_C205 [2]; 231: 1.5

O=C(CCl)NC(=O)NC12CC3CC(CC(C3)C1)C2 [compound 12]
isoTOP-ABPP ratio, cysteine Q9GZR2_C382 [7]; 231: 20.0
isoTOP-ABPP ratio, cysteine Q9NXJ5_C149 [3]; 231: 3.9
isoTOP-ABPP ratio, cysteine Q6PCB5_C280 [1]; 231: 20.0

C=CC(=O)N(Cc1cccnc1)c1cc(C(F)(F)F)cc(C(F)(F)F)c1 [compound 31]
isoTOP-ABPP ratio Q8IU81_C363 [4]: 0.7

Cn1cc(S(=O)(=O)N2CCOCC2)cc1C(=O)NC(=O)CCl [compound 11]
isoTOP-ABPP ratio, cysteine Q7Z5K2_C160 ([6]; 100 μM in situ 231): 1.0

O=C(CCl)NCCc1c[nH]c2ccccc12 [compound 13]
isoTOP-ABPP ratio, cysteine Q9GZR2_C382 ([7]; ramos): 0.9
isoTOP-ABPP ratio, cysteine Q9BR61_C267 [8]; 231: 1.1
isoTOP-ABPP ratio, cysteine Q9NXJ5_C149 ([3]; ramos): 20.0
isoTOP-ABPP ratio, cysteine Q6QNY0_C168 ([9]; ramos): 1.2
isoTOP-ABPP ratio, cysteine Q6PCB5_C280 ([1]; ramos): 0.8
isoTOP-ABPP ratio, cysteine Q16667_C39 ([5]; ramos): 1.2
isoTOP-ABPP ratio, cysteine Q9Y5T5_C205 ([2]; ramos): 20.0

O=C(CCl)N1CCN(CC(=O)N2CCOCC2)CC1 [compound 29]
isoTOP-ABPP ratio Q9BR61_C267 ([8]; ramos): 2.5
isoTOP-ABPP ratio Q6QNY0_C168 ([9]; ramos): 1.6
isoTOP-ABPP ratio Q6PCB5_C280 ([1]; ramos): 1.4
isoTOP-ABPP ratio Q16667_C39 ([5]; ramos): 1.7
isoTOP-ABPP ratio Q7Z5K2_C160 ([6]; 200 μM, insitu, ramos): 0.7

O=C(CCl)NC12CC3CC(CC(C3)C1)C2 [compound 21]
isoTOP-ABPP ratio, cysteine Q16667_C39 [5]; 231: 0.8
isoTOP-ABPP ratio, cysteine Q9Y5T5_C205 [2]; 231: 0.9

Reference: patent US10670605B2, “Cysteine reactive probes and uses thereof” (The Scripps Research Institute, priority 2015, dated 2020)
